Key:
Experiment in all cases: Dye uptake flow cytometry MDR assay
Type in all cases: cell-based, human
A549 cell line = conditions: A549, dye uptake
Method: Concentrations of the modulators used in the experiments were non-toxic to the cells (based upon standard 3-(4,5-Dimethylthiazol-2-Yl)-2,5-Diphenyltetrazolium Bromide (MTT) testing, data not shown). Fluo-8™ was used in all experiments at 5 μM, and Rhod-4™—at 4 μM final concentrations.
Kolmogorov-Smirnov statistics measures the difference between two distribution functions and generates a D value ranging between 0 and 1.0, with higher values indicating a greater difference between the distribution functions. The D value generated by the KS statistics was modified by ascribing a negative value if the fluorescence of a negative control (no inhibitor) was brighter than the fluorescence of the sample with inhibitor.

Hep G2 cells = tested on: Hep G2 cells; parameters: key: Kolmogorov-Smirnov D statistic comparing fluorescence distributions; conditions: HepG2, dye uptake
Method: (§1) Cells were grown on tissue culture dishes and on the day of assay were trypsinized and washed twice with warm (37° C.) phosphate-buffered saline (PBS). Post-wash, the cells were re-suspended in warm phenol red indicator-free medium at a density of 1×10^6/ml. For each detection set, sixteen tubes (5 samples in triplicates plus non-stained control for background fluorescence) in numbered tubes each containing 5×10^5/cells (0.5 ml) were prepared. […] After incubation for 5 min at 37° C., 0.25 ml of warm medium with Fluo-8™ AM probe (5 μM final concentration) or Rhod-4™ AM probe (2 μM final concentration) was added to each tube excluding non-stained control that receives plain medium and cells were incubated for 30 min at 37° C. and analyzed immediately by flow cytometry. In the second set of the tubes, the reaction was stopped by rapid centrifugation (1 min) at relatively low speed (200×g). After wash with ice-cold PBS and discarding the supernatant, cells were re-suspended in 0.5 ml of ice-cold medium and kept on ice until flow cytometry analysis. The third set of cells simply was spun down (1 min, 200×g) to remove the excess of the probe, resuspended in ice-cold medium and kept on ice until flow cytometry analysis.
(§2) Flow cytometry experiments were performed using a FACS Calibur benchtop flow cytometer (BD Biosciences) equipped with a blue (488 nm) laser, and the signals were registered in the FITC (530/30 filter), PE (585/42 filter) and PerCP (670 LP filter) channels. Fluo-8™ dye fluorescence was measured in the FL1 channel, and Rhod-4™ dye fluorescence—in the FL2 channel. Flow cytometry data were analyzed by comparison of median fluorescence or using Kolmogorov-Smirnov statistics [Young, J Histochem Cytochem 25:935-941 (1977)] or by calculating MAF values (MDR Activity Factor) using the following formula: MAF=100*((MFIinh−MFI0)/MFIinh), where MFIinh and MFI0 are mean fluorescence intensity values measured in the presence and absence of inhibitor [Hollo et al., Biochem Piophys Acta. 1191:384-388 (1994)].
(§3) Both human ileocecal colorectal carcinoma cell line HCT-8 (reported to over-express P-gp and, to a lesser extent, MRP [Hunter et al., Br J Cancer. 64:437-444 (1991); Collington et al., Biochem Pharmacol 44:417-424 (1992)] and hepatocellular carcinoma Hep G2 (reported to over-express MRP [Roelofsen et al., Gastroenterology 112:511-521 (1997), Cantz et al., Am J Physiol Gastrointest Liver Physiol. 278:G522-G531 (2000)] were obtained from ATCC. HCT-8 cells were routinely cultured in RPMI-1640 Medium with 2 mM L-glutamine, 10 mM HEPES, 1 mM sodium piruvate, 4.5 g/L glucose, 1.5 g/L sodium bicarbonate (ATCC), supplemented with 10% horse serum (ATCC) and 100 U/ml penicillin, 100 ug/ml streptomycin (Sigma-Aldrich, St. Louis, Mo.). Hep G2 cells were routinely cultured in Eagle's Minimum Essential Medium with low glucose (ATCC), supplemented with 10% heat inactivated fetal bovine serum (ATCC) and 100 U/ml penicillin, 100 ug/ml streptomycin (Sigma-Aldrich, St. Louis, Mo.). Cell cultures were maintained in a humidified incubator at 37° C., with 5% CO2 atmosphere. Stock solutions of the probes and inhibitors were prepared, as described in Examples 2 and 3. Cells were grown in tissue culture dishes and on the day of assay were treated according to a dye uptake protocol and analyzed by flow cytometry, as described in Example 3.

HCT-8 cells = tested on: HCT-8 cells; parameters: key: Kolmogorov-Smirnov D statistic comparing fluorescence distributions; conditions: HCT-8, dye uptake
Method: as §1, §2, §3

[1] = average of three independent experiments (Table 10)
[2] = average of three representative experiments (Table 6)
[3] = representative experiment (Table 8)

## CC(=O)OCOC(=O)CN(CC(=O)OCOC(C)=O)c1ccccc1OCCOc1cc(-c2c3ccc(=O)cc-3oc3cc(OCOC(C)=O)ccc23)ccc1N(CC(=O)OCOC(C)=O)CC(=O)OCOC(C)=O [Fluo-8 ™ AM]
A549 cell line; [1]
  D-value, Cyclosporine A: 0.43
  D-value, FTC: 0.31
  D-value, MK-571: 0.61
  D-value, Novobiocin: 0.37
  D-value, Verapamil: 0.06
A549 cell line; [2]
  D-value, Fumitremorgan C: 0.23
  D-value, Probenecid: 0.26
  D-value, Verapamil: 0.07
A549 cell line; [3]
  D-value, Cyclosporine A: 0.51
  D-value, Novobiocin: 0.44
  D-value, Probenecid: 0.49
  D-value, Verapamil: 0.09
Hep G2 cells
  D-value, CyclosporinA: 0.28
  D-value, MK-571: 0.34
  D-value, Novobiocin: 0.13
  D-value, Verapamil: 0
HCT-8 cells
  D-value, CyclosporinA: 0.68
  D-value, MK-571: 0.34
  D-value, Novobiocin: 0.22
  D-value, Verapamil: 0.71
